The source of these data is ChEMBL document CHEMBL1201862, “PubChem BioAssay data set” (2004).

Each structure is given as a SMILES string. The source made the active and inactive calls. Bounds are passed on as bounds.

What all share (format): functional
In one experiment the target is Genome polyprotein (dengue virus type 2, UniProt P29990). Nature of the experiment: Dengue-2 NS5 methyltransferase inhibitors, primary screen, biochemical, confirmation dose response (AID 588689).
A further experiment concerns the target T1, Protein RecA (Mycobacterium tuberculosis, UniProt P9WHJ3).
T1 sequence (P9WHJ3 whole entry): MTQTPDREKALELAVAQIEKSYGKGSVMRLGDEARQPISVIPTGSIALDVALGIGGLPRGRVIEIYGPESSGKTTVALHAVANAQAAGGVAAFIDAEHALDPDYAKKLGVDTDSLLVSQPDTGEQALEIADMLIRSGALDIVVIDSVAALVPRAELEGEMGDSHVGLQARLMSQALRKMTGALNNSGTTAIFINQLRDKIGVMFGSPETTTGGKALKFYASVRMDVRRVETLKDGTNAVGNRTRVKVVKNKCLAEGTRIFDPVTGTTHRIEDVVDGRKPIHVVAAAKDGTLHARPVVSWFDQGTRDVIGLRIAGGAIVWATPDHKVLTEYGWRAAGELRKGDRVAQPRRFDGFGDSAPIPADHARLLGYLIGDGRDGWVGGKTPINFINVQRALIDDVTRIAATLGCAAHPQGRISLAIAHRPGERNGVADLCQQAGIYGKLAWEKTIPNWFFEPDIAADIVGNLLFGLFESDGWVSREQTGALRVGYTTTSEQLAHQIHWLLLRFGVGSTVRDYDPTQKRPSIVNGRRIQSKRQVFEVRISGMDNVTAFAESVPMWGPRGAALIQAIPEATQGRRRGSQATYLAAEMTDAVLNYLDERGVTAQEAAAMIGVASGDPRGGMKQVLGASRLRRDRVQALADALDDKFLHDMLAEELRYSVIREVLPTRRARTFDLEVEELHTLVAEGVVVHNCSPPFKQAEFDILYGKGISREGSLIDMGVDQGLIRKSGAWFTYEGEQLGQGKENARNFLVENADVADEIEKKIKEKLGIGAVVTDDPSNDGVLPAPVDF
Nature of the experiment: Fluorescence Cell-Free Homogeneous Dose Retest to Identify Inhibitors of RecA-Intein Splicing Activity. [Related pubchem assays (depositor defined):AID2097, AID2223, AID489010, AID492950].

The test system of another experiment is Vero. As to the kind of experiment: Vero cell cytotoxicity, cytotoxicity control for flavivirus capping enzyme inhibitors (AID 588742). To be noted: Chlorocebus sabaeus.
Experiment [1] addresses T2, Replicative DNA helicase DnaB (Mycobacterium tuberculosis, UniProt P9WMR3).
T2 sequence (P9WMR3 whole entry): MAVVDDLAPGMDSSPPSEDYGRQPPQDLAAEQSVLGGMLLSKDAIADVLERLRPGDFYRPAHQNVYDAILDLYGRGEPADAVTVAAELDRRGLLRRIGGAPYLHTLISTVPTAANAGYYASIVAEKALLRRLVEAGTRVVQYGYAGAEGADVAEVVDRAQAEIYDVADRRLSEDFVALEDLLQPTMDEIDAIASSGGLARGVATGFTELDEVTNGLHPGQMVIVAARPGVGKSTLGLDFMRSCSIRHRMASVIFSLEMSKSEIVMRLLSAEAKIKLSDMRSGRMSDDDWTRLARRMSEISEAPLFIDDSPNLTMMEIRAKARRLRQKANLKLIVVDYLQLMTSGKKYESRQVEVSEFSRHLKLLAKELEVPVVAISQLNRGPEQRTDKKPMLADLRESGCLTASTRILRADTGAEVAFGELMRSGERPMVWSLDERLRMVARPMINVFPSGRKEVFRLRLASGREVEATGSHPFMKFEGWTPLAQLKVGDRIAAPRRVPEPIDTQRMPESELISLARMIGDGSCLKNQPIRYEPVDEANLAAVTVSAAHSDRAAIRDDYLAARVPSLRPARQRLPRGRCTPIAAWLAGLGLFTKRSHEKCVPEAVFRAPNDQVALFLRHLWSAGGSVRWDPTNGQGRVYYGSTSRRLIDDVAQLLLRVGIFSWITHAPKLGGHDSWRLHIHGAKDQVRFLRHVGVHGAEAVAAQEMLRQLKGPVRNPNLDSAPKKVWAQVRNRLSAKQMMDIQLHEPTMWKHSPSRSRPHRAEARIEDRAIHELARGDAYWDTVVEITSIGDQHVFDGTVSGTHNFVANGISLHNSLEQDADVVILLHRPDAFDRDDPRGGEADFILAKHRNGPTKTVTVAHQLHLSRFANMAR
As to the kind of experiment: DnaB intein splicing inhibitors, dose response, biochemical, cell-free fluorescence (AID 449749).

Experiment [2] concerns the target T3, DNA repair and recombination protein RAD54-like (Homo sapiens, UniProt Q92698).
T3 sequence (Q92698 whole entry): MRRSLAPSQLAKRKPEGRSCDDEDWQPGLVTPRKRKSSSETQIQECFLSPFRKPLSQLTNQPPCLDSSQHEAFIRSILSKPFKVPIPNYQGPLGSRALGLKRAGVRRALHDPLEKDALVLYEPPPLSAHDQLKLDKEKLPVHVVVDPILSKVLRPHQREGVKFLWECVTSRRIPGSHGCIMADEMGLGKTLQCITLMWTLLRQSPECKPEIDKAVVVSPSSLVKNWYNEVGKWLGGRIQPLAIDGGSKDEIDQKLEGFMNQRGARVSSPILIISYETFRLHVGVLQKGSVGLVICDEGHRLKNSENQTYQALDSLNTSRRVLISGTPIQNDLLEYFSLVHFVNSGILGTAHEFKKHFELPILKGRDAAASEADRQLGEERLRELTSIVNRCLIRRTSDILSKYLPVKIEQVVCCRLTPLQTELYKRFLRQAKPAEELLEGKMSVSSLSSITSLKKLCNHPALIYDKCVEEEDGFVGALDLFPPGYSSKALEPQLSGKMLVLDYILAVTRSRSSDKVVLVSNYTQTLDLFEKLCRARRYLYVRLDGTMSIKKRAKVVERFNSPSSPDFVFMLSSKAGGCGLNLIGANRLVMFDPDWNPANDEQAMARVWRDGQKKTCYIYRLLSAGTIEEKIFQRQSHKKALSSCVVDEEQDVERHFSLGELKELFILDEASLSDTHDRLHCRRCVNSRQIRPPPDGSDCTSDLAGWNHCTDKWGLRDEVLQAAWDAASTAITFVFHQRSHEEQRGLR
Nature of the experiment: inhibitors of human RAD54 branch migration, confirmation, biochemical, fluorescence, cherry-picked samples, dose series (AID 651657).

The next experiment addresses T4, Caspase-3 (Homo sapiens, UniProt P42574).
T4 sequence (P42574 whole entry): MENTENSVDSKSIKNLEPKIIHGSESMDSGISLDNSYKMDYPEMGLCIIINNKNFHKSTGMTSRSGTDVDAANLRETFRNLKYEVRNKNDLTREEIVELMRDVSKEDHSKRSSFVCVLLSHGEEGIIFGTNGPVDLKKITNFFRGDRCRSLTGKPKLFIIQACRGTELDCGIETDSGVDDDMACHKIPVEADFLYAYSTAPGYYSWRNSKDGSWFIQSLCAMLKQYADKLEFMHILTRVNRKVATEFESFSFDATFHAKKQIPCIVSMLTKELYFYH
As to the kind of experiment: SAR Analysis of small molecule inhibitors of Sentrin-specific proteases (SENPs) using a Caspase-3 Selectivity assay. [Related pubchem assays (depositor defined):AID2540, AID2599, AID434973, AID489001].

Experiment [3] addresses T5, Sentrin-specific protease 6 (Homo sapiens, UniProt Q9GZR1).
T5 sequence (Q9GZR1 whole entry): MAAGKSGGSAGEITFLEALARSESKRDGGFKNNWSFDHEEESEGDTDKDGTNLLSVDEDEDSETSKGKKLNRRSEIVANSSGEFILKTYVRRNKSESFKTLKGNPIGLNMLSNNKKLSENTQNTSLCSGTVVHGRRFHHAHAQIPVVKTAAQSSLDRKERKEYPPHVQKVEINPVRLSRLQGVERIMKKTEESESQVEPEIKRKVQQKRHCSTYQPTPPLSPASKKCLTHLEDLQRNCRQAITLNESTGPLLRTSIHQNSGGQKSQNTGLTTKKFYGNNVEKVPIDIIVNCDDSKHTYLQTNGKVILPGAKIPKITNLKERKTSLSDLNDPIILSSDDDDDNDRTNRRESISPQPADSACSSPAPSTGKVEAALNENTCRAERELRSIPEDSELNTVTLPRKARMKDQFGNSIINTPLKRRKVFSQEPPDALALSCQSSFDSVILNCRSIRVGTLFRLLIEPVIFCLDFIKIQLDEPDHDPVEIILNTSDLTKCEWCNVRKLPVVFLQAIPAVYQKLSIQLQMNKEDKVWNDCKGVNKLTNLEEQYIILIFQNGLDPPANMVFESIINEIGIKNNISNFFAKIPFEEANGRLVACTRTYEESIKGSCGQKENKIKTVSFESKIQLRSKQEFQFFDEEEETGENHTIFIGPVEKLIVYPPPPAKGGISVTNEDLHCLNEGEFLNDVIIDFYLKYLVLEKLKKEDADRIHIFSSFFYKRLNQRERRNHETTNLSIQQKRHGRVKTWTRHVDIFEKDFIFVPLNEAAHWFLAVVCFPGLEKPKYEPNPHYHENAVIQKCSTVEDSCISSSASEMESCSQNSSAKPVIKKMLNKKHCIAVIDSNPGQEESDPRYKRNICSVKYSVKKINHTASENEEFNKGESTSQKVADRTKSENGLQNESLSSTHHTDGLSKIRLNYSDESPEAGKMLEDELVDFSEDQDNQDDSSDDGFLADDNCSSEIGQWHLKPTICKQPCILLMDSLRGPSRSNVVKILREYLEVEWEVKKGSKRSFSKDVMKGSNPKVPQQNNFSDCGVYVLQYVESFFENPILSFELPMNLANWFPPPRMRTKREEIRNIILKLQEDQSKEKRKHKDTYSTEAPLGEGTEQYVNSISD
As to the kind of experiment: SAR Analysis of small molecule inhibitors of Sentrin-specific protease 6 (SENP6) using a Luminescent assay. [Related pubchem assays (depositor defined):AID2582, AID2599].

The target of experiment [4] is T6, Sentrin-specific protease 7 (Homo sapiens, UniProt Q9BQF6).
T6 sequence (Q9BQF6 whole entry): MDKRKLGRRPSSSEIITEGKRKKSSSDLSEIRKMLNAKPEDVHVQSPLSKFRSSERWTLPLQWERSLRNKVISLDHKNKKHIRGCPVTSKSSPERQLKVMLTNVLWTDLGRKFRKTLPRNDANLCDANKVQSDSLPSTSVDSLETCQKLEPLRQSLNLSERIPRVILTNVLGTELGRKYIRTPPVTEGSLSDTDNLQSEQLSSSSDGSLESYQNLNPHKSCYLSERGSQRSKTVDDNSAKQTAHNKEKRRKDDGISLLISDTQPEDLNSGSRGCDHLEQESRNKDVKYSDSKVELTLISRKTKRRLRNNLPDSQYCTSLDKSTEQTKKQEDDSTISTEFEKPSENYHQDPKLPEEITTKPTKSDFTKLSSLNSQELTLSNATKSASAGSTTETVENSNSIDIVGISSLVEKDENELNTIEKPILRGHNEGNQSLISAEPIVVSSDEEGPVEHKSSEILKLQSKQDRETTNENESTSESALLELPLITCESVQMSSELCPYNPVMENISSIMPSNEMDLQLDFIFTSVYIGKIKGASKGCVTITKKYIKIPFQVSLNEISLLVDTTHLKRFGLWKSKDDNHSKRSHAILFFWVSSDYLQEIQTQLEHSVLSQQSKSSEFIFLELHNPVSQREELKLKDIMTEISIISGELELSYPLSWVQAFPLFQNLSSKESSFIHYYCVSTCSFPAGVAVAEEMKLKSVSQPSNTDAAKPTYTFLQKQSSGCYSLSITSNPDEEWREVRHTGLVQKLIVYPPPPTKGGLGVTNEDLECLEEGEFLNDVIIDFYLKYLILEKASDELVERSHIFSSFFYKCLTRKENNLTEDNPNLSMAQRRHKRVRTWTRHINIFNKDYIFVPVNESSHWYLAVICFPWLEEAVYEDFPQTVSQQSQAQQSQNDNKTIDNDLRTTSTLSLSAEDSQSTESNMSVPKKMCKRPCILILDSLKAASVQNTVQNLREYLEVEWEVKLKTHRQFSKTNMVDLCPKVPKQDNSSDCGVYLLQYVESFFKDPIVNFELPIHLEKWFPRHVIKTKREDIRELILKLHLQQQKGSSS
Nature of the experiment: SENP7 protease inhibitors, SAR follow-up, biochemical, luminescence (AID 504497).

Experiment [5] concerns the target T7, Sentrin-specific protease 8 (Homo sapiens, UniProt Q96LD8).
T7 sequence (Q96LD8 whole entry): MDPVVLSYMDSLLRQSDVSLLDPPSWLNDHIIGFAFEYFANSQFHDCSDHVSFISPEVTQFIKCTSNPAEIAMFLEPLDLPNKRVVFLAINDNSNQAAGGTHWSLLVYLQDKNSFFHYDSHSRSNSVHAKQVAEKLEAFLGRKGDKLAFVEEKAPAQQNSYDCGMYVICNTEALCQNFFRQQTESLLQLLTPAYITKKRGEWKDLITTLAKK
As to the kind of experiment: SENP8 protease inhibitors, SAR follow-up, biochemical, luminescence (AID 504501).

In experiment [6] the target is Ras and Rab interactor 1/Tyrosine-protein kinase ABL1 (Homo sapiens, UniProt P00519+Q13671).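 Also: biochemical TR-FRET dose-response test measuring inhibition of binding between Rin1 and Abl proteins.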
Chain of Ras and Rab interactor 1/Tyrosine-protein kinase ABL1 (P00519 whole entry): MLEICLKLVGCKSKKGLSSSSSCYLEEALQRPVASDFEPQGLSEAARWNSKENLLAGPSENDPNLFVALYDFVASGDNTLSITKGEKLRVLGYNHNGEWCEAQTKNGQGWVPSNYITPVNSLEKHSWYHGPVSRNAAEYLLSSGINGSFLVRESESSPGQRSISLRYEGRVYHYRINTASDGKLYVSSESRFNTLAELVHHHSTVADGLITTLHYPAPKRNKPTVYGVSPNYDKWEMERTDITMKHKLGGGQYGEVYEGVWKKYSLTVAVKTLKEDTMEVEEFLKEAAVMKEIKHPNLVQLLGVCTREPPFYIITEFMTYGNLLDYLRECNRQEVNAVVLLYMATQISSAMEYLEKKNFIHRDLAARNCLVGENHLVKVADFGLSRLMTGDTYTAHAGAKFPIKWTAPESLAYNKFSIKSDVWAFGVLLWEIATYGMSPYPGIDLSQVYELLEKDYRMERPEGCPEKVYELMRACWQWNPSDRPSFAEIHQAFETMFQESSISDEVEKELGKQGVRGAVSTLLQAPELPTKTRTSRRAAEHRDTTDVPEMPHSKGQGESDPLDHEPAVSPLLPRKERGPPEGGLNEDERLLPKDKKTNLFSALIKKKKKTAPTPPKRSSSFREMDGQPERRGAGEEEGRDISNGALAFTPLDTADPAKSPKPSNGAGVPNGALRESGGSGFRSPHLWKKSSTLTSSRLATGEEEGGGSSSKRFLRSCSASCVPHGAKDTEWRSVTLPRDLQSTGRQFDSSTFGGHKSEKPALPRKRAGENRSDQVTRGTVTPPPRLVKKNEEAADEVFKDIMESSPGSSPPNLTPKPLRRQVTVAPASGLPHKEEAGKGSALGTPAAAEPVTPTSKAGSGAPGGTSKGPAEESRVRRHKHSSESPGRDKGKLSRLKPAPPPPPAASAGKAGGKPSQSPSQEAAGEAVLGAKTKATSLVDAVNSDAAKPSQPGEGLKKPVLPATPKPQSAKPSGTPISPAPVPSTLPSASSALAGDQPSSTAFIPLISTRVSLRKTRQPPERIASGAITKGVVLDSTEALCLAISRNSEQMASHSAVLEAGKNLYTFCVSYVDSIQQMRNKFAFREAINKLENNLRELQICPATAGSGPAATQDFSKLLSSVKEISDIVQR
Chain of Ras and Rab interactor 1/Tyrosine-protein kinase ABL1 (Q13671 whole entry): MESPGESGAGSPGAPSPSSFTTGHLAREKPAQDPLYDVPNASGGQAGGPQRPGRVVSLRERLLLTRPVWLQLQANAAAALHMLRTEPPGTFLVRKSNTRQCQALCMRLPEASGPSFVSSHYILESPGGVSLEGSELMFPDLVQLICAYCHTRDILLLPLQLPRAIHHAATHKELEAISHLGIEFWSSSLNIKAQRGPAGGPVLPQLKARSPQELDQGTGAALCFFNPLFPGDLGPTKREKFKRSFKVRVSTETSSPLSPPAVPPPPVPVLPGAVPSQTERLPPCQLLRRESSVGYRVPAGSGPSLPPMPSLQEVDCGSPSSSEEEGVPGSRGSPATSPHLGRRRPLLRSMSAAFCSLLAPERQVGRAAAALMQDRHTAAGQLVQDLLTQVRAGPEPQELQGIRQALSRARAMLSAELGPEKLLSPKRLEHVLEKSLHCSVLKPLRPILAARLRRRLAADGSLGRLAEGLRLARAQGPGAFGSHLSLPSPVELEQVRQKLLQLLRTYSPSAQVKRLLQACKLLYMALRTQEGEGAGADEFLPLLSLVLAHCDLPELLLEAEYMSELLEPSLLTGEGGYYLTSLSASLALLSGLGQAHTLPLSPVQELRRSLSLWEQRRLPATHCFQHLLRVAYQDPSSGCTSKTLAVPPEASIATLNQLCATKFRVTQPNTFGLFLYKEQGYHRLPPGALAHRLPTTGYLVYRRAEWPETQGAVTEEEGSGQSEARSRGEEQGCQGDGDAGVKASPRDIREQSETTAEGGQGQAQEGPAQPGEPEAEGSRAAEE

Chain of Genome polyprotein (P29990 2492-3391 limits assumed): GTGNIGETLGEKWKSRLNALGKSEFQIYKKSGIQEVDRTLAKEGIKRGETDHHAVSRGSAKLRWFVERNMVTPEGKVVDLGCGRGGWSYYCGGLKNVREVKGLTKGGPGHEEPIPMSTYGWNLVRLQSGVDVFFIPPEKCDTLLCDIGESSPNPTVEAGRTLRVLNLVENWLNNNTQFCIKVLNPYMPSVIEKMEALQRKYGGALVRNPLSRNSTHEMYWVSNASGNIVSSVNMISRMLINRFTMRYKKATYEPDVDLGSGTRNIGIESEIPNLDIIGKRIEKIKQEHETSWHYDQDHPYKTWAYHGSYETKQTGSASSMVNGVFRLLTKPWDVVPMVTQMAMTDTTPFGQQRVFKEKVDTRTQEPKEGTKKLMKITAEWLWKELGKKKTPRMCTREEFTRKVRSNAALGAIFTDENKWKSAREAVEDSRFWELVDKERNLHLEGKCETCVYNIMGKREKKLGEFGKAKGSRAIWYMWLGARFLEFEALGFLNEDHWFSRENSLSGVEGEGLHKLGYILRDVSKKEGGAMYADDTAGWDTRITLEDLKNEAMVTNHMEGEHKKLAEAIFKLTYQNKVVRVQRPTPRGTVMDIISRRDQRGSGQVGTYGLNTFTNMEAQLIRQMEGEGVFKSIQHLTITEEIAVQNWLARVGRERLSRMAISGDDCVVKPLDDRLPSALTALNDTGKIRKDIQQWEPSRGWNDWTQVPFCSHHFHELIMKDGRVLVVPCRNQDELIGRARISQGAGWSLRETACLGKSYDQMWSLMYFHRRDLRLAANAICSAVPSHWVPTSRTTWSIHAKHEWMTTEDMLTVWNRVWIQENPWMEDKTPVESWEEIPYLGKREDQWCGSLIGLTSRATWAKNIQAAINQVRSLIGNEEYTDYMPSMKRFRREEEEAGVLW

In the case of `Cc1nn(Cc2ccccc2)c2c1C(c1cccc(Cl)c1)C(C#N)=C(N)O2` (centres undefined), at Genome polyprotein, the IC50 (usually the concentration needed to halve the response being measured) is > 100 µM (active). Further, the EC50 (as a rule, the concentration giving half of the maximal effect) on Protein RecA is 3.26 µM (active). The CC50 (usually the concentration at which the toxic effect on the cells reaches its halfway point) in the experiment on Vero is > 40 µM (active). Moreover, in experiment [1], the AC50 – broadly, the concentration giving half of the maximal activity seen – is 5.7 µM (active).

Turning to `COc1ccccc1Nc1c2ccccc2nc2ccccc12`, the AC50 in experiment [2] is 29.8 µM (active).

On to `Cc1cc(NC(=O)COC(=O)CNC(=O)c2sc3ccccc3c2Cl)no1`, for which the IC50 (at Caspase-3; in [3]; in experiment [4]; in [5]) was > 99 µM (inactive) each time.

As for `CCOc1ccc(CCNC(=O)CN2C(=O)c3cccnc3Oc3ccc(Cl)cc32)cc1`, the IC50 in experiment [6] was > 73.5 µM (inactive).

Take `Cc1csc(C(=O)Nc2nc3ccc(Cl)cc3s2)c1`: the half-inhibitory concentration (IC50) at Caspase-3 is 36 µM (active); in experiment [3] it was > 99 µM (inactive); in experiment [4], 89 µM (active); in experiment [5], > 99 µM (inactive).

For `COc1ccc2nc(NC(=O)c3ccc4c(c3)OCCO4)sc2c1`, the IC50 (on Caspase-3; in [3]; in [4]; in [5]) was > 99 µM (inactive) throughout.

Regarding `COc1ccc(CCNc2cc(=O)[nH]c(N)n2)cc1`, in experiment [6], the IC50 was 5.15 µM (active).
